Results reported in ChEMBL document CHEMBL4373746, “Structural attributes influencing unbound tissue distribution” (Eur J Med Chem, 2020).

Key:
[1] = Fraction unbound in Wistar Han rat plasma at 2 uM incubated for 6 hrs by equilibrium dialysis method
[2] = Fraction unbound in Wistar Han rat brain at 2 uM incubated for 6 hrs by equilibrium dialysis method
[3] = Unbound tissue partition coefficient, ratio of drug level in liver to plasma in Wistar Han rat at 1 to 2 mg/kg, iv infused for 10 to 20 hrs by LC-MS/MS analysis; conditions: liver/plasma
[4] = Drug concentration in total heart in Wistar Han rat at 1 to 2 mg/kg, iv infused for 10 to 20 hrs by LC-MS/MS analysis; conditions: in vivo
[5] = Drug concentration in total white adipose tissue in Wistar Han rat at 1 to 2 mg/kg, iv infused for 10 to 20 hrs by LC-MS/MS analysis; conditions: in vivo
[6] = Apparent permeability of the compound across dog RRCK cells by MDCK-LE assay
[7] = Drug concentration in total liver in Wistar Han rat at 1 to 2 mg/kg, iv infused for 10 to 20 hrs by LC-MS/MS analysis; conditions: in vivo
[8] = Unbound tissue partition coefficient, ratio of drug level in adipose to plasma in Wistar Han rat at 1 to 2 mg/kg, iv infused for 10 to 20 hrs by LC-MS/MS analysis; conditions: adipose/plasma
[9] = Fraction unbound in Wistar Han rat heart at 2 uM incubated for 6 hrs by equilibrium dialysis method
[10] = Unbound tissue partition coefficient, ratio of drug level in brain to plasma in Wistar Han rat at 1 to 2 mg/kg, iv infused for 10 to 20 hrs by LC-MS/MS analysis; conditions: brain/plasma
[11] = Fraction unbound in Wistar Han rat liver at 2 uM incubated for 6 hrs by equilibrium dialysis method
[12] = Fraction unbound in Wistar Han rat white adipose tissue at 2 uM incubated for 6 hrs by equilibrium dialysis method
[13] = Unbound tissue partition coefficient, ratio of drug level in heart to plasma in Wistar Han rat at 1 to 2 mg/kg, iv infused for 10 to 20 hrs by LC-MS/MS analysis; conditions: heart/plasma
[14] = Unbound tissue partition coefficient, ratio of drug level in skeletal muscle to plasma in Wistar Han rat at 1 to 2 mg/kg, iv infused for 10 to 20 hrs by LC-MS/MS analysis; conditions: skeletal muscle/plasma
[15] = Fraction unbound in Wistar Han rat skeletal muscle at 2 uM incubated for 6 hrs by equilibrium dialysis method
[16] = Total plasma concentration in Wistar Han rat at 1 to 2 mg/kg, iv infused for 10 to 20 hrs by LC-MS/MS analysis; conditions: in vivo
[17] = Unbound tissue partition coefficient, ratio of drug level in brain to plasma in mouse administered as single dose; assay type: ADME; conditions: read-out: K(p,uu,brain)
[18] = Drug concentration in total brain in Wistar Han rat at 1 to 2 mg/kg, iv infused for 10 to 20 hrs by LC-MS/MS analysis; conditions: in vivo
[19] = Drug concentration in total skeletal muscle in Wistar Han rat at 1 to 2 mg/kg, iv infused for 10 to 20 hrs by LC-MS/MS analysis; conditions: in vivo

SMILES | fraction unbound at 6 h, 2 µM [1] | fraction unbound at 6 h, 2 µM [2] | Kp uu [3] | Ct [4] | Ct [5] | Papp [6] | Ct [7] | Kp uu [8] | fraction unbound at 6 h, 2 µM [9] | Kp uu [10] | fraction unbound at 6 h, 2 µM [11] | fraction unbound at 6 h, 2 µM [12] | Kp uu [13] | Kp uu [14] | fraction unbound at 6 h, 2 µM [15] | Cp [16] | Kp uu [17] | Ct [18] | Ct [19]
CN1CC[C@H](c2c(O)cc(O)c3c(=O)cc(-c4ccccc4Cl)oc23)[C@H](O)C1 [ALVOCIDIB] | 0.147 | 0.0442 | 0.33 | 56 ng/mL | 5.6 ng/mL | 22 ×10⁻⁶ cm/s | 32 ng/mL | 2.7 | 0.0624 | 0.06 | 0.021 | 1 | 1.7 | 0.86 | 0.033 | 14 ng/mL | 0.065 | 2.9 ng/mL | 52 ng/mL
CN(C)C(=O)C(CCN1CCC(O)(c2ccc(Cl)cc2)CC1)(c1ccccc1)c1ccccc1 [LOPERAMIDE] | 0.0462 | 0.00591 | 0.11 | 390 ng/mL | 130 ng/mL | 2.7 ×10⁻⁶ cm/s | 590 ng/mL | 0.1 | 0.00677 | 0.002 | 0.000644 | 0.00264 | 0.79 | 0.11 | 0.0022 | 74 ng/mL | 0.059 | 1.3 ng/mL | 170 ng/mL
